The values below come from patent US20250059188A1, “ARYLSULPHONAMIDE COMPOUNDS” (Anaxis Pharma Pty Ltd, priority 2021, published 2025).

Structures are written as SMILES. Bounds are passed on as bounds.

One test has as its target human RIPK1 (Homo sapiens (Human), UniProt Q13546). Briefly: KINOMEscan binding assay, human RIPK1. The following applies: equilibrium dissociation constant. An outline of the steps:
(§1)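 Competition binding format with qPCR detection. Kinases, either phage-fused from E. coli lysates or HEK-293-derived with a DNA tag, bound ligand-coated beads in the presence of compound (11 points, 3-fold steps, 1% DMSO, top usually 30,000 nM). Kd from nonlinear Hill fitting with slope −1.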

The target of a further test is human MLKL (full length) (Homo sapiens (Human), UniProt Q8NB16). In words: KINOMEscan binding assay, human MLKL (full length). The following applies: equilibrium dissociation constant. An outline of the steps:
as §1

The next test concerns the target human RIPK3 (Homo sapiens (Human), UniProt Q9Y572). In words: KINOMEscan binding assay, human RIPK3. The following applies: equilibrium dissociation constant. An outline of the steps:
as §1

The test system of test [1] is U937 human histiocytic leukemia cell line. Briefly: Inhibition of TSQ induced necroptosis in U937 cells (CellTitre-Glo). The following applies: Homo sapiens, U-937, TSQ cocktail (TNF, Smac mimetic, Q-VD-OPh), 48 hours, read-out: Inhibition of TSQ-induced necroptosis (IC50 cell-based assay). Put shortly: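 U937 cells (20000/well) treated with compound (10-point, 1:3 from 36 μM, 0.3% DMSO) plus TSQ cocktail (hTNF-Fc 100 ng/ml, Smac mimetic 500 nM, Q-VD-OPh 10 μM), 48 h at 37 °C. Viability by CellTiter-Glo luminescence; IC50 from 4-parameter logistic fit. Counter screen: same cells without TSQ.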

The subject of a further test is U937 cells. Briefly: Counter screen: U937 cell viability without TSQ cocktail (off-target effect). Also noted: species or system human. The following applies: Homo sapiens, U-937, compound without TSQ cocktail, read-out: Off-target effect (IC50 cell-based assay). An outline of the steps: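 U937 cells (20,000/well) exposed to compound (10-point 1:3 titration from 36 μM, 0.3% DMSO) without TSQ cocktail for 48 h at 37 °C/5% CO2. Viability read as ATP by CellTiter-Glo luminescence; IC50 from 4-parameter logistic fit.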
In general terms: Counterscreens check selectivity or assay interference.

Sequence of human RIPK1 (Q13546 whole entry, the tested form may be a part): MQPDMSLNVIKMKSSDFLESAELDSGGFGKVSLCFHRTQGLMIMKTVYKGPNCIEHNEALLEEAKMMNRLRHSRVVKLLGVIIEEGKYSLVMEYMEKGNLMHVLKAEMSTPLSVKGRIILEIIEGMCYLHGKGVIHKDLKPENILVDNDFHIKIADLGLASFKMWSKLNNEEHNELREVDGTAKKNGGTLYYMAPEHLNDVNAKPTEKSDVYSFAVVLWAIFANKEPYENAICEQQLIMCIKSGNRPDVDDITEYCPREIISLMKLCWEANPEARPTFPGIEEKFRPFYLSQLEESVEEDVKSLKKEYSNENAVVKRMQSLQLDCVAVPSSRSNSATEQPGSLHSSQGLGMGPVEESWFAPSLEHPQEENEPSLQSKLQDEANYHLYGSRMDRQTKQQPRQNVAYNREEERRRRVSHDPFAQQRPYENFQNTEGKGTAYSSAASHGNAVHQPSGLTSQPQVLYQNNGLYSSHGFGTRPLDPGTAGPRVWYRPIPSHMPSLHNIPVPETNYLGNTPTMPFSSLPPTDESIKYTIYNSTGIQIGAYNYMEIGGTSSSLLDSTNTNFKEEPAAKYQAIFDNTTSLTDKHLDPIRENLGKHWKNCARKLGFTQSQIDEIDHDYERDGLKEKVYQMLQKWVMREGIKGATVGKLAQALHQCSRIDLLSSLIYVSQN
Sequence of human MLKL (full length) (Q8NB16 whole entry): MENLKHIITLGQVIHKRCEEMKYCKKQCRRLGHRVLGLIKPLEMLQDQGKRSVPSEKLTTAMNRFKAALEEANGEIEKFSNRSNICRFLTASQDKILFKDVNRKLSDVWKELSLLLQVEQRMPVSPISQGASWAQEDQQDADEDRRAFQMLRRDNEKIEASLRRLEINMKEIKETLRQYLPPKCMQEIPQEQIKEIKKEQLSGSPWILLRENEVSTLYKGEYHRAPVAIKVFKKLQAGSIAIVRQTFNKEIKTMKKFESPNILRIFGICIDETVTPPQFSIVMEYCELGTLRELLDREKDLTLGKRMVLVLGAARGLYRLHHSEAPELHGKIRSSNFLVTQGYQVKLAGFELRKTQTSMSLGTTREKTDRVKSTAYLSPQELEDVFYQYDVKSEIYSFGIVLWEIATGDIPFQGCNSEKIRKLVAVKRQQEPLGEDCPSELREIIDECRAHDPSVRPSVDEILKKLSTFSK
Sequence of human RIPK3 (Q9Y572 whole entry): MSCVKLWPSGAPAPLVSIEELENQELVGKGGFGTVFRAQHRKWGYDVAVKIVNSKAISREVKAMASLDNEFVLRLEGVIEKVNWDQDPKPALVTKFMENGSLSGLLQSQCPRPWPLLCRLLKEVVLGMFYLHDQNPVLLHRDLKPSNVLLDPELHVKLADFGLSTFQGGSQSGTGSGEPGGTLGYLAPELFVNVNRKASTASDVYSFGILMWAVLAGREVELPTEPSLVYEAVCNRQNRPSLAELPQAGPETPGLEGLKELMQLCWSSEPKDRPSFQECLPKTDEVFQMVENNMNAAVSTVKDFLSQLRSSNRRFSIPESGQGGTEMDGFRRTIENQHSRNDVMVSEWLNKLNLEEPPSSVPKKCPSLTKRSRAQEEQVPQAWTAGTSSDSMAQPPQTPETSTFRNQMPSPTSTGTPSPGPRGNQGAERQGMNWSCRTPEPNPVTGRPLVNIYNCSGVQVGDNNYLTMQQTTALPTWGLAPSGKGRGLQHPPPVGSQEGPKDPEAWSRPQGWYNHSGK

For `C[C@H](Oc1cc(-c2nn(C)c3c(-c4cnn(C5CC6CCC(C5)N6CC(F)(F)F)c4)cnc(N)c23)ccc1NS(=O)(=O)C(F)F)c1ccc(F)cc1` (stereo partly drawn) [Compound 153, N-(4-(4-amino-1-methyl-7-(1-(8-(2,2,2-trifluoroethyl)-8-azabicyclo[3.2.1]octan-3-yl)-1H-pyrazol-4-yl)-1H-pyrazolo[4,3-c]pyridin-3-yl)-2-((S)-1-(4-fluorophenyl)ethoxy)phenyl)-1,1-difluoromethanesulfonamide], the Kd (as a rule, the equilibrium constant for the complex coming apart) at human RIPK1 was greater than 10 µM; on human MLKL (full length) it was 0.001 to 0.1 µM; on human RIPK3, greater than 10 µM. Besides, the IC50 (in general, the concentration that gives 50% inhibition) in test [1] was 0.01 to 1 µM; in the test on U937 cells, greater than 10 µM.

As for `C[C@@H](Oc1cc(-c2nn(C)c3c(-c4cnn(C5CCOCC5)c4)cnc(N)c23)ccc1NS(=O)(=O)C(F)F)c1ccc(F)cc1` [Compound 121, (R)-N-(4-(4-amino-1-methyl-7-(1-(tetrahydro-2H-pyran-4-yl)-1H-pyrazol-4-yl)-1H-pyrazolo[4,3-c]pyridin-3-yl)-2-(1-(4-fluorophenyl)ethoxy)phenyl)-1,1-difluoromethanesulfonamide], the Kd on human RIPK1 is greater than 10 µM; on human MLKL (full length) it was less than 0.001 µM; at human RIPK3 it was greater than 10 µM. The values for the half-inhibitory concentration (IC50) (in test [1]; in the test on U937 cells) were 0.01 to 1 µM and greater than 10 µM, respectively.

Take `C[C@H](Oc1cc(-c2nn(C)c3c(-c4cnn(C5C[C@H]6CNC[C@H]6C5)c4)cnc(N)c23)ccc1NS(=O)(=O)C(F)F)c1ccc(F)cc1` (stereo partly drawn) [Compound 163, N-(4-(4-amino-1-methyl-7-(1-((3aR,6aS)-octahydrocyclopenta[c]pyrrol-5-yl)-1H-pyrazol-4-yl)-1H-pyrazolo[4,3-c]pyridin-3-yl)-2-((S)-1-(4-fluorophenyl)ethoxy)phenyl)-1,1-difluoromethanesulfonamide]: the Kd on human RIPK1 is greater than 10 µM; on human MLKL (full length) it was less than 0.001 µM; at human RIPK3 it was greater than 10 µM. In addition, the IC50 is 0.01 to 1 µM in test [1] and greater than 10 µM with U937 cells.

On to `C[C@H](Oc1cc(-c2nn(C)c3c(-c4cnn(C5CCN(C)C6(CC6)C5)c4)cnc(N)c23)ccc1NS(=O)(=O)C(F)F)c1ccc(F)cc1` (stereo partly drawn) [Compound 145, N-(4-(4-amino-1-methyl-7-(1-(4-methyl-4-azaspiro[2.5]octan-7-yl)-1H-pyrazol-4-yl)-1H-pyrazolo[4,3-c]pyridin-3-yl)-2-((S)-1-(4-fluorophenyl)ethoxy)phenyl)-1,1-difluoromethanesulfonamide], for which the Kd on human RIPK1 was greater than 10 µM; at human MLKL (full length), 0.001 to 0.1 µM; at human RIPK3, greater than 10 µM. Moreover, the IC50 was less than 0.01 µM in test [1] and greater than 10 µM with U937 cells.

With `CC(n1cc(-c2cnc(N)c3c(-c4ccc(NS(=O)(=O)C(F)F)c(O[C@@H](C)c5ccc(F)cc5)c4)nn(C)c23)cn1)C(F)(F)F` (stereo partly drawn) [Compound 142, N-(4-(4-amino-1-methyl-7-(1-(1,1,1-trifluoropropan-2-yl)-1H-pyrazol-4-yl)-1H-pyrazolo[4,3-c]pyridin-3-yl)-2-((S)-1-(4-fluorophenyl)ethoxy)phenyl)-1,1-difluoromethanesulfonamide], the dissociation constant (Kd) at human RIPK1 was greater than 10 µM; on human MLKL (full length) it was less than 0.001 µM; at human RIPK3 it was greater than 10 µM. Besides, the IC50 was 0.01 to 1 µM in test [1] and greater than 10 µM in the test with U937 cells.

For `Cc1c(-c2cnc(N)c3c(-c4ccc(NS(=O)(=O)C(F)F)c(O[C@@H](C)c5ccc(F)cc5)c4)nn(C)c23)cnn1C1CCN(C)C(C)(C)C1` (stereo partly drawn) [Compound 157, N-(4-(4-amino-1-methyl-7-(5-methyl-1-(1,2,2-trimethylpiperidin-4-yl)-1H-pyrazol-4-yl)-1H-pyrazolo[4,3-c]pyridin-3-yl)-2-((S)-1-(4-fluorophenyl)ethoxy)phenyl)-1,1-difluoromethanesulfonamide], the values for the equilibrium dissociation constant (Kd) at human RIPK1, on human MLKL (full length) and at human RIPK3 were greater than 10 µM, 0.001 to 0.1 µM and greater than 10 µM, respectively. The IC50 in test [1] was 0.01 to 1 µM; in the test on U937 cells, greater than 10 µM.

For `C[C@H](Oc1cc(-c2nn(C)c3c(-c4cnn(C5CCOCC5)c4)cnc(N)c23)ccc1NS(=O)(=O)C(F)F)c1ccc(F)cc1` [Compound 19, (S)-N-(4-(4-amino-1-methyl-7-(1-(tetrahydro-2H-pyran-4-yl)-1H-pyrazol-4-yl)-1H-pyrazolo[4,3-c]pyridin-3-yl)-2-(1-(4-fluorophenyl)ethoxy)phenyl)-1,1-difluoromethanesulfonamide], the Kd on human RIPK1 was greater than 10 µM; on human MLKL (full length), less than 0.001 µM; on human RIPK3 it was greater than 10 µM. Besides, the IC50 is less than 0.01 µM in test [1] and greater than 10 µM in the test on U937 cells.

Consider `C[C@H](Oc1cc(-c2nn(C)c3c(-c4cnn(C5CCN(C)C(C)(C)C5)c4)cnc(N)c23)ccc1NS(=O)(=O)C(F)F)c1ccc(F)cc1` (single isomer, unassigned) [Compound 154, N-(4-(4-amino-1-methyl-7-(1-((R*)-1,2,2-trimethylpiperidin-4-yl)-1H-pyrazol-4-yl)-1H-pyrazolo[4,3-c]pyridin-3-yl)-2-((S)-1-(4-fluorophenyl)ethoxy)phenyl)-1,1-difluoromethanesulfonamide], for which the figures for the Kd at human RIPK1, at human MLKL (full length) and at human RIPK3 were greater than 10 µM, less than 0.001 µM and greater than 10 µM, respectively. The half-inhibitory concentration (IC50) was less than 0.01 µM in test [1] and greater than 10 µM with U937 cells.

For the molecule `C[C@H](Oc1cc(-c2nn(C)c3c(-c4cnn(C5CCN(C)C(C(F)(F)F)C5)c4)cnc(N)c23)ccc1NS(=O)(=O)C(F)F)c1ccc(F)cc1` (stereo partly drawn) [Compound 148, N-(4-(4-amino-1-methyl-7-(1-(1-methyl-2-(trifluoromethyl)piperidin-4-yl)-1H-pyrazol-4-yl)-1H-pyrazolo[4,3-c]pyridin-3-yl)-2-((S)-1-(4-fluorophenyl)ethoxy)phenyl)-1,1-difluoromethanesulfonamide], the Kd on human RIPK1 was greater than 10 µM; at human MLKL (full length), 0.001 to 0.1 µM; at human RIPK3, greater than 10 µM. Besides, the IC50 in test [1] was less than 0.01 µM; in the test on U937 cells it was greater than 10 µM.

As to `C[C@H](Oc1cc(-c2nn(C)c3c(C#CC4CCNCC4)cnc(N)c23)ccc1NS(=O)(=O)C(F)F)c1ccc(F)cc1` [Compound 79, (S)—N-(4-(4-amino-1-methyl-7-(piperidin-4-ylethynyl)-1H-pyrazolo[4,3-c]pyridin-3-yl)-2-(1-(4-fluorophenyl)ethoxy)phenyl)-1,1-difluoromethanesulfonamide], the Kd on human RIPK1 was greater than 10 µM; at human MLKL (full length), less than 0.001 µM; at human RIPK3, greater than 10 µM. Moreover, the figures for the IC50 (in test [1]; in the test on U937 cells) were 0.01 to 1 µM and greater than 10 µM, respectively.

For `CC(C)N(C)C(=O)C(C)n1cc(-c2cnc(N)c3c(-c4ccc(NS(=O)(=O)C(F)F)c(O[C@@H](C)c5ccc(F)cc5)c4)nn(C)c23)cn1` (stereo partly drawn) [Compound 81, 2-(4-(4-amino-3-(4-((difluoromethyl)sulfonamido)-3-((S)-1-(4-fluorophenyl)ethoxy)phenyl)-1-methyl-1H-pyrazolo[4,3-c]pyridin-7-yl)-1H-pyrazol-1-yl)-N-isopropyl-N-methylpropanamide], the Kd on human RIPK1 is greater than 10 µM; at human MLKL (full length), less than 0.001 µM; at human RIPK3, greater than 10 µM. The IC50 in test [1] is less than 0.01 µM; in the test with U937 cells, greater than 10 µM.
